3 compounds from ChEMBL document CHEMBL2074260, “Role of breast cancer resistance protein in the bioavailability and fetal penetration of topotecan” (J Natl Cancer Inst, 2000) can be followed below.

SMILES strings stand for the structures.

Common to all, as to type: functional, cell-based
For data set [1], the target named is T1, Broad substrate specificity ATP-binding cassette transporter ABCG2 (Mus musculus, UniProt Q7TMS5).
T1 sequence (Q7TMS5 whole entry): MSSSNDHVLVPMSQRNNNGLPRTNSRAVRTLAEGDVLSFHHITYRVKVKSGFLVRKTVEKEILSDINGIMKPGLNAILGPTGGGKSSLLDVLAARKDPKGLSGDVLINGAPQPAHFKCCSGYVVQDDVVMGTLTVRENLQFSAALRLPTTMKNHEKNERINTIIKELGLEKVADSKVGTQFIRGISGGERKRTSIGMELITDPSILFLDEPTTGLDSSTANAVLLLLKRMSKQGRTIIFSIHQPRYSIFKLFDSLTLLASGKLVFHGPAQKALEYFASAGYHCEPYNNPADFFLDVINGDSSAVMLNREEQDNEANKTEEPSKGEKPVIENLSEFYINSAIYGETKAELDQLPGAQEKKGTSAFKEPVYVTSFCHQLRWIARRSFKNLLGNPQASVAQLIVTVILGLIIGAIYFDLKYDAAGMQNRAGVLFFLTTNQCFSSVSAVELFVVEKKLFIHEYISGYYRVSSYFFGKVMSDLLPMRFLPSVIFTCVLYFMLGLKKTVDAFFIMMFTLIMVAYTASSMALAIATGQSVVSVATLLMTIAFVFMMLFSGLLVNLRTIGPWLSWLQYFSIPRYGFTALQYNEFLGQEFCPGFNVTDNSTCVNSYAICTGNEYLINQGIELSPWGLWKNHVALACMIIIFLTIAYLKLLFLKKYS
The experiment in a line: TP_TRANSPORTER: inhibition of Topotecan transepithelial transport (basal to apical)(Topotecan: 10uM, GF120918:10uM) in Bcrp1-expressing LLC-PK1 cells. The note with it: pig, llc-pk1, 10 µM.

Data set [2] addresses T1, Broad substrate specificity ATP-binding cassette transporter ABCG2. The experiment in a line: TP_TRANSPORTER: inhibition of Topotecan transepithelial transport (basal to apical) in Bcrp1-expressing LLC-PK1 cells. The note with it: pig.
For data set [3] the target is unchanged. The experiment in a line: TP_TRANSPORTER: transepithelial transport (basal to apical) in Bcrp1-expressing LLC-PK1 cells. Conditions: pig.

Take `COc1cc2c(cc1OC)CN(CCc1ccc(NC(=O)c3cccc4c(=O)c5cccc(OC)c5[nH]c34)cc1)CC2.Cl` [ELACRIDAR HYDROCHLORIDE]: in data set [1], the Activity entry was “inhibitor [+]”.
Turning to `C/C=C/C[C@@H](C)C(=O)[C@H]1C(=O)N[C@@H](C(C)C)C(=O)N(C)CC(=O)N(C)[C@@H](CC(C)C)C(=O)N[C@@H](C(C)C)C(=O)N(C)[C@@H](CC(C)C)C(=O)N[C@@H](C)C(=O)N[C@H](C)C(=O)N(C)[C@@H](CC(C)C)C(=O)N(C)[C@@H](CC(C)C)C(=O)N(C)[C@@H](C(C)C)C(=O)N1C` [VALSPODAR], the Activity result in data set [2] was “is not an inhibitor [-]”.
As to `CC[C@@]1(O)C(=O)OCc2c1cc1n(c2=O)Cc2cc3c(CN(C)C)c(O)ccc3nc2-1` [TOPOTECAN], in data set [3], the Activity result is “substrate [+]”.
